In patent publication US20070027634A1, “Molecular hepatotoxicology modeling” (priority 2002, published 2007):

Legend:
[1] = hamster livers; cited from earlier work
[2] = cited from earlier work
rat hepatocytes = conditions: cited from earlier work
[3] = cited from earlier work; remark: listed apart in the source
[4] = cited from earlier work; remark: listed apart in the source
[5] = rats and hamsters; cited from earlier work
[6] = test system: human hepatoma cell lines; conditions: cited from earlier work
[7] = rats and mice; cited from earlier work
[8] = mice; cited from earlier work
[9] = Serum clinical chemistry of dosed rats (studies by the present inventors); conditions: AY-25329; as early as 6 hours after the first dose; 14 day study
[10] = Light microscopic analysis of liver and kidney of dosed rats (present inventors)
[11] = in vivo; cited from earlier work
[12] = dogs, after treatment; cited from earlier work
[13] = rat liver mitochondria; cited from earlier work
[14] = in vivo; cited from earlier work; remark: listed apart in the source
[15] = acute administration, male rats
[16] = male Sprague Dawley rats, 0.1, 1, 2, 3, 4 mL/kg ip, […] po
[17] = male Sprague Dawley rats, peak within 48 hours post dose
[18] = 14 days of repeated dosing, 250 mg/kg/day

For `NN` [hydrazine, Hydrazine], the “hepatic adenomas and carcinomas” value [1] is given as “developed in a dose-dependent manner”, the “liver finding (pathology)” value ([2]; rats) is given as “induction of fatty liver” and the liver weight ([2]; rats) is given as “increases”. The GSH (rat hepatocytes; rat hepatocytes) was “depletion”, the “LDH (lactic acid dehydrogenase) leakage” value (rat hepatocytes; rat hepatocytes) was “leakage” and the “intracellular ATP” value (rat hepatocytes; rat hepatocytes) was “depletion”. The “rate of protein synthesis” value (rat hepatocytes; rat hepatocytes) was “decreased” and the viability (rat hepatocytes; rat hepatocytes) was “dose-dependent loss”.

In the case of `CC(O)(CS(=O)(=O)c1ccc(F)cc1)C(=O)Nc1ccc(C#N)c(C(F)(F)F)c1` (stereo not drawn) [bicalutamide], the “levels of CYP3A1” value ([2]; rats) is listed as “elevated levels”, the “ALT / glutamic-pyruvic transaminase (GPT) level” value ([3]; humans) is listed as “elevated levels” and the “AST / glutamic-oxalacetic transaminase (GOT) level” value ([3]; humans) is listed as “elevated levels”. For the same compound, the “alkaline phosphatase (AL-P) level” value ([3]; humans) was “elevated levels” and the “gamma guanosine 5′-triphosphate (gamma-GTP) level” value ([3]; prostate cancer patients) was “elevated levels”.

In the case of `ClC(Cl)(Cl)Cl` [CCl4, carbon tetrachloride], the “time of peak centrilobular necrosis and inflammatory infiltration” value ([2]; acute administration, male rats, post dose) is listed as 24 to 48 h, the “time to cytoplasmic accumulation of lipids in hepatocytes” value [2, 15] is listed as 1 to 3 h and the “time to focal necrosis and hydropic swelling of hepatocytes” value [2, 15] is listed as 5 to 6 h. The “time to full restoration of the liver” value [2, 15] was no more than 14 days, the “serum α-glutathione s-transferase (α-GST) level” value ([4]; male SD rats, 25 μL/kg po, as early as 2 hours after administration) was “Significant increases” and the “time after administration within which ALT level increases” value [4, 16] was no more than 3 h. For the same compound, the “time after administration within which AST level increases” value [4, 16] was no more than 3 h, the “peak increase of ALT level” value [4, 17] was 5-10 fold and the “peak increase of AST level” value [4, 17] was 5-10 fold.

In the case of `CN(C)N=O` [DMN, dimethylnitrosamine], the “hydroxyproline levels (indicator of fibrosis)” value ([2]; rats) is listed as “elevated”, the “liver finding (pathology)” value ([2]; rats) is listed as “severe centrilobular congestion and haemorrhagic necrosis” and the “ALT (alanine aminotransferase) level in serum or plasma” value (shortened to “ALT (alanine aminotransferase) level”) ([4]; rats) is listed as “increased”. For the same compound, the “serum SOD” value ([4]; rats) was “decreased” and the “serum malondialdehyde (MDA)” value ([4]; rats) was “increased”.

In the case of `Cc1ccc(C)c(OCCCC(C)(C)C(=O)O)c1` [gemfibrozil], the DT-diaphorase activity [5] is given as “increase” and the alpha-tocopherol [5] is given as “decrease”.

In the case of `Cl.Nc1c2c(nc3ccccc13)CCCC2` [tacrine, 1,2,3,4-tetrahydro-9-aminoacridine-hydrochloride], the “liver finding (pathology)” value ([2]; rats) is given as “have not shown a correlation between tacrine exposure and hepatotoxicity”, the cytotoxicity [6] is given as “displayed cytotoxicity” and the cytotoxicity (rat hepatocytes; primary rat hepatocytes) is given as “displayed cytotoxicity”.

For `COc1ccc2c(c1)c(CC(=O)O)c(C)n2C(=O)c1ccc(Cl)cc1` [indomethacin], the “liver and renal microsomal enzymes, including CYP450” value ([2]; rats, single dose) is given as “reduce”.

In the case of `CC(=O)Nc1ccc(O)cc1` [acetaminophen], the “liver finding (pathology)” value ([2]; rats) is given as “hepatocellular necrosis”, the “time after dosing at which hepatotoxicity can be observed” value ([2]; rats) is given as 24 h and the “ALT (alanine aminotransferase) level” value ([4]; rats) is given as “statistically significant elevations”. The “AST (aspartate aminotransferase) level in serum or plasma” value (“AST (aspartate aminotransferase) level” below) ([4]; rats) was “statistically significant elevations”.

For `CC(=O)Nc1ccc2c(c1)Cc1ccccc1-2` [2-AAF, 2-acetylaminofluorene], the “liver finding (pathology)” value ([2]; rats) is listed as “cirrhosis-like changes in the liver”, the “ALT (alanine aminotransferase) level” value ([4]; rats) is listed as “elevated” and the “AST (aspartate aminotransferase) level” value ([4]; rats) is listed as “elevated”.

In the case of `ClC(Cl)Cl` [chloroform, Chloroform], the “time to cytoplasmic accumulation of lipids in hepatocytes” value [2, 15] is given as 1 to 3 h, the “time to focal necrosis and hydropic swelling of hepatocytes” value [2, 15] is given as 5 to 6 h and the “level of BUN” value [7] is given as “increased levels”. For the same compound, the level of phosphatidyl-ethanolamine [7] was “decreased levels”, the “level of serum creatinine” value [7] was “increased levels” and the “level of tissue glutathione (GSH)” value [7] was “decreased levels”. The “levels of 5-methylcytosine and of the methylated c-myc gene” value [8] was “Decreased levels”, the “markers of hepatocellular regeneration (alpha-fetoprotein, retinol-binding protein, gamma-glutamyl transferase and des-gamma-carboxyprothrombin)” value ([3]; humans, poisoning) was “increased levels” and the “alkaline phosphatase (AL-P) level” value ([3]; humans) was “decreased levels”.

In the case of `CC(=O)O[C@]1(C(C)=O)CC[C@H]2[C@@H]3C=C(Cl)C4=CC(=O)[C@@H]5C[C@@H]5[C@]4(C)[C@H]3CC[C@@]21C` [CPA, Cyproterone acetate], the “time after which continuous DNA repair activity was observed” value ([2]; rats, single oral dose) is given as 16 h and the “occurrence of S phase cells in rat liver” value ([2]; rats) is given as “increased”.

With `O=C(CCN1CCN2CCCC2C1)N1c2ccccc2Sc2ccc(Cl)cc21` (stereo not drawn) [AY-25329] the “serum level of ALT” value [9] was “statistically significant increases”, the “serum level of BUN” value [9] was “statistically significant increases” and the “serum level of cholesterol” value [9] was “statistically significant increases”. The “serum level of creatinine” value [9] was “statistically significant increases”, the “serum level of triglycerides” value [9] was “statistically significant increases” and the kidney finding [10, 18] was “nephrosis”. For the same compound, the liver finding [10, 18] was “alterations in the peripheral lobes of the liver and in the cytoplasm of hepatocytes”, the “hepatocytic mitotic figures (light microscopy)” value ([10]; liver, 6 and 24 hours) was “increased number” and the “liver glycogen content (light microscopy)” value ([10]; liver, 6 and 24 hours) was “decreased”.

For `O=C(O)c1cc(-c2ccc(F)cc2F)ccc1O` [diflunisal], the “LDH (lactic acid dehydrogenase) leakage” value (rat hepatocytes; rat hepatocytes) is given as “increase” and the “intracellular ATP” value (rat hepatocytes; rat hepatocytes) is given as “decreased”.

For `CC(c1cc2ccccc2s1)N(O)C(N)=O` (stereo not drawn) [zileuton], the “levels of liver peroxisomal palmitoyl CoA oxidase” value [11] is given as “elevated levels”, the “levels of microsomal cytochromes P450 2B and P450 4A” value [11] is given as “elevated levels” and the liver size [11] is given as “hepatomegaly”.

In the case of `Cl.Nc1nc2c(Cc3ccsc3)c[nH]c2c(=O)[nH]1.O` [CI-1000, 4H-pyrrolo:3,2-d:pyrimidin-4-one, 2-amino-3,5-dihydro-7-(3-thienylmethyl)-monohydrochloride monohydrate], the “serum ALT level” value [12] is listed as “increased”.

In the case of `CC(=N)S` [thioacetamide, Thioacetamide], the “ALT (alanine aminotransferase) level” value ([4]; rats) is listed as “elevated levels”, the “AST (aspartate aminotransferase) level” value ([4]; rats) is listed as “elevated levels” and the “serum BUN” value ([4]; rats) is listed as “elevated levels”. For the same compound, the “serum TNFα” value ([4]; rats) was “elevated levels”, the serum creatinine ([4]; rats) was “elevated levels” and the serum total bilirubin ([4]; rats) was “elevated levels”.

In the case of `C#C[C@]1(O)CC[C@H]2[C@@H]3CCc4cc(O)ccc4[C@H]3CC[C@@]21C` [17α-ethinylestradiol], the “activity of liver enzyme alkaline phosphatase” value ([2]; male rats) is listed as “initially showed significant increases, but enzyme levels decreased after 3 days”, the “activity of liver enzyme leucine aminopeptidase” value ([2]; male rats) is listed as “initially showed significant increases, but enzyme levels decreased after 3 days” and the bile flow ([2]; male rats) is listed as “decrease”. The bilirubin output ([2]; male rats) was “increased”, the “glutathione (GSH) output” value ([2]; male rats) was “decreased” and the “liver finding (pathology)” value ([2]; rats) was “reversible intrahepatic cholestasis”. For the same compound, the liver weight ([2]; rats) was “increase”, the plasma cholesterol level ([4]; male rats) was “decrease” and the “plasma level of bile salts” value ([4]; male rats) was “not changed”. For the same compound, the “plasma level of bilirubin” value ([4]; male rats) was “not changed”, the plasma triglyceride level ([4]; male rats) was “decrease” and the “ALT (alanine aminotransferase) level” value ([4]; rats) was “not changed”. For the same compound, the “AST (aspartate aminotransferase) level” value ([4]; rats) was “not changed”.

In the case of `CCOC(=O)C(C)(C)Oc1ccc(Cl)cc1` [clofibrate], the “levels of copper in neoplastic liver tissues” value ([2]; rat study of liver hyperplasia and liver tumors) is given as “increased levels” and the “liver finding (pathology)” value ([2]; rats) is given as “hepatocellular hypertrophy, cellular proliferation, hepatomegaly, induction of CYP450 isozymes, and induction of palmitoyl CoA oxidation”.

In the case of `Cc1cccc(Nc2cc(Cl)nc(SCC(=O)O)n2)c1C` [Wy-14643], the oxidative phosphorylation [13] is listed as “capable of uncoupling oxidative phosphorylation”.

For `CCCC(CCC)C(=O)O` [valproate, n-dipropylacetic acid], the “liver finding (pathology)” value ([2]; rats) is listed as “microvesicular steatosis”, the “share of patients with elevated levels of hepatic enzymes” value ([3]; patients) is listed as “about 40%” and the “amounts of acyl-CoA esters” value (rat hepatocytes; cultured rat hepatocytes) is listed as “increased amounts”. The “LDH (lactic acid dehydrogenase) leakage” value (rat hepatocytes; rat hepatocytes) was “dose-dependent leakage”.

In the case of `S=C=Nc1cccc2ccccc12` [ANIT, α-naphthylisothiocyanate], the activity of catalase [14] is listed as “decreased”, the “activity of superoxide dismutase” value [14] is listed as “decreased” and the “serum glutamic oxaloacetic transaminase” value [14] is listed as “increase”. For the same compound, the “serum glutamic pyruvic transaminase” value [14] was “increase”, the “serum level of alkaline phosphatase” value [14] was “increase” and the “serum level of total bilirubin” value [14] was “increase”. The total bile flow [14] was “reduced”.
